Assay results as given in patent US20250345492A1, “AN ANTIBACTERIAL POLYPEPTIDE COMPOUND, A MEDICAL DEVICE, HYDROGEL AND USE THEREOF” (priority 2020, published 2025).
Ends that are not written are not given here.

Legend:
E. coli (ATCC 25922) [1] = assay: Mouse septic peritonitis model, survival; assay type: in vivo, Kunming mice; conditions: 20 mg/kg intraperitoneally one hour after E. coli inoculation, 7 days of observation
Method: The determination of the in vivo antibacterial activity of the antibacterial polypeptide compounds is to reflect the antibacterial activity in vivo by detecting the survival rate of mice infected with bacteria or fungi.
Taking compounds 2, 8, 9, 13 and 15 of the present invention as examples, the in vivo antibacterial effects of the antibacterial polypeptide compounds were analyzed. The mice used in this test were Kunming mice, which were placed in constant-temperature environment (22±1° C.). Simply, 36 Kunming mice (18-22 g of body weight) were randomly divided into 6 groups and intraperitoneally injected with 0.2 ml of 3×10^8 CFU/mL E. coli (ATCC 25922) on Day 1 to establish mouse septic peritonitis model. The mice were administered intraperitoneally one hour after inoculation with the bacteria, and then the compounds 2, 8, 9, 13 and 15 were injected intraperitoneally at a dose of 20 mg/kg of body weight. Polymyxin B (20 mg/kg) was selected as a positive reference control, and a negative control group received intraperitoneal injection of sterile saline. After 7 days of observation, the survival rates of mice in administration groups and control groups were calculated to create survival curves.

[2] = tested on: human cervical cancer cell Hela; assay: Cytotoxicity, MTT colorimetry; assay type: cell-based
Method: (§1) For cytotoxicity determination, the MTT colorimetry was used to evaluate the effects of the compounds on the proliferation of human cervical cancer cell Hela, human embryonic renal epithelial cell HEK293 and mouse mononuclear macrophage RAW264.7.
(§2) Taking compounds 2, 8, 9, 13 and 15 of the present invention as examples, the cytotoxicity of the antibacterial polypeptide compounds was analyzed. Three cell lines were employed for the present invention, namely human cervical cancer cell Hela, human embryonic renal epithelial cell HEK293 and mouse mononuclear macrophage RAW264.7. Hela cells were cultured in RPMI 1640 medium with 10% newborn calf serum, HEK293 cells and RAW264.7 cells were cultured in DMEM medium with 10% fetal bovine serum. Simply, cells (1×10^4 cells/well) were inoculated to a 96-well plate and incubated in an incubator set to 5% CO2 at 37° C. After 24 hours, compounds of different concentrations were added and incubated in the 5% CO2 incubator. After 24 hours, 20 μL of MTT solution with a concentration of 5 mg/mL was added to each well and incubated for 4 hours. After that, the medium was removed with a pipet, and 150 μL of DMSO added to dissolve the purple-blue formazan crystals. The solution was shaken in an oscillator for 5 mins before detecting the absorbance value at 570 nm using the ELISA reader, and then the survival rate was calculated with the formula: (OD dosing group/OD control group)×100% (n=3).

[3] = tested on: mouse mononuclear macrophage RAW264.7; assay: Cytotoxicity, MTT colorimetry; assay type: cell-based
Method: as §1, §2

[4] = tested on: human embryonic renal epithelial cell HEK293; assay: Cytotoxicity, MTT colorimetry; assay type: cell-based
Method: as §1, §2

Acute toxicity in mice = assay: Acute toxicity in mice; design: species or system Kunming mice; conditions: mouse, in vivo, ip, intraperitoneal injection, Karber method
Method: Acute toxicity of the compounds was determined by measuring the acute toxicity in mice with the compounds.
Taking compounds 2, 8, 9, 13 and 15 of the present invention as examples, […]. The mice used in this test were Kunming mice, which were placed in constant-temperature environment (22±1° C.) and could freely obtain water and food. Simply, 132 healthy Kunming mice were randomly divided into 11 groups, with 12 mice in each group (half male and half female), wherein, 5 groups were intraperitoneally injected with 0.2 ml of the compounds of different doses (100-1000 mg/kg), and the control group was intraperitoneally injected with normal saline. In this experiment, melittin was used as a reference control, and the other 5 groups were intraperitoneally injected with melittin of different doses (10-32 mg/kg). The state of mice was observed and recorded after 2 hours of administration, and then observed twice a day for 14 days, and the survival rates of the mice were recorded.

[5] = tested on: P-2c, clinical isolated drug-resistant strain PA; conditions: strain P-2c (PA)
Description: (§3) With respect to the determination of antibacterial activity and antifungal activity of the antibacterial polypeptide compounds, the bacterial strains employed included: E. coli (ATCC 25922), E. coli (ATCC 43837), Pseudomonas aeruginosa (ATCC 27853), Klebsiella pneumoniae (ATCC 700603), Cronobacter sakazakii (ATCC 29544), Staphylococcus aureus (ATCC 29213), Bacillus subtilis (ATCC 23857) and Staphylococcus epidermidis (ATCC 12228); and the fungal strains employed included Candida albicans (ATCC 14053), Candida glabrata (ATCC 2001), Candida parapsilosis (ATCC 22019), Candida tropicalis (ATCC 750) and Candida krusei (ATCC 6258), all of which were standard strains from American Type Culture Collection. In addition, drug-resistant strains S-1a, S-2a, S-3a, S-4a, E-1b, E-2b, E-3b, E-4b, E-5b, P-1c, P-2c, P-3c, P-4c, P-5c, and clinically isolated fungal strains Candida glabrata 2-1 and Candida albicans 14-1, 14-2 and 14-3 were employed, all which were clinically isolated.
(§4) Simply, a proper amount of the cryopreserved bacterium or fungus was added to fresh MH/SD medium, and cultured on a shaker overnight at 180 rpm at 37° C. The obtained cells were seeded again and cultured on a shaker for 4-5 hours to obtain cells in logarithmic phase. The resulting cells were added to a 96-well plate (1×10^5 CFU/ml, 100 μL/well), and then 100 μL of polypeptide with different concentrations (1-256 μM) twice the final concentrations was added to corresponding well according to the 2-fold serial dilution method. The fresh medium was used as a negative control, which was prepared in triplicate for each concentration. After dosing, the 96-well plate was placed in an incubator at constant 37° C. and humidity for 12 hours to observe the results. According to naked eye observations, the concentration of the compound in the first transparent well following the turbid wells was recorded as the MIC of the compound, namely, the MIC value of the compound to the bacterium or fungus.

[6] = tested on: Staphylococcus epidermidis (ATCC 12228); conditions: ATCC 12228
Description: as §3, §4

[7] = tested on: Cronobacter sakazakii (ATCC 29544); conditions: ATCC 29544
Description: as §3, §4

[8] = tested on: S-3a, clinical isolated drug-resistant strain MRSA; conditions: strain S-3a (MRSA)
Description: as §3, §4

C. krusei ATCC6258 = conditions: ATCC6258
Description: as §3, §4

[9] = tested on: E-3b, clinical isolated drug-resistant strain ESBL; conditions: strain E-3b (ESBL)
Description: as §3, §4

[10] = tested on: P-5c, clinical isolated drug-resistant strain PA; conditions: strain P-5c (PA)
Description: as §3, §4

C. parapsilosis ATCC2001 = conditions: ATCC2001
Description: as §3, §4

C. glabrata ATCC22019 = conditions: ATCC22019
Description: as §3, §4

[11] = tested on: S-2a, clinical isolated drug-resistant strain MRSA; conditions: strain S-2a (MRSA)
Description: as §3, §4

[12] = tested on: E-4b, clinical isolated drug-resistant strain ESBL; conditions: strain E-4b (ESBL)
Description: as §3, §4

[13] = tested on: Staphylococcus aureus (ATCC 29213); conditions: ATCC 29213
Description: as §3, §4

C. tropicalis ATCC750 = conditions: ATCC750
Description: as §3, §4

[14] = tested on: E-2b, clinical isolated drug-resistant strain ESBL; conditions: strain E-2b (ESBL)
Description: as §3, §4

[15] = tested on: E-1b, clinical isolated drug-resistant strain ESBL; conditions: strain E-1b (ESBL)
Description: as §3, §4

[16] = tested on: S-1a, clinical isolated drug-resistant strain MRSA; conditions: strain S-1a (MRSA)
Description: as §3, §4

E. coli (ATCC 25922) [17] = conditions: ATCC 25922
Description: as §3, §4

[18] = tested on: P-3c, clinical isolated drug-resistant strain PA; conditions: strain P-3c (PA)
Description: as §3, §4

[19] = tested on: E-5b, clinical isolated drug-resistant strain ESBL; conditions: strain E-5b (ESBL)
Description: as §3, §4

[20] = tested on: Pseudomonas aeruginosa (ATCC 27853); conditions: standard strain
Description: as §3, §4

[21] = tested on: P-4c, clinical isolated drug-resistant strain PA; conditions: strain P-4c (PA)
Description: as §3, §4

[22] = tested on: P-1c, clinical isolated drug-resistant strain PA; conditions: strain P-1c (PA)
Description: as §3, §4

C. albicans ATCC14053 = conditions: ATCC14053
Description: as §3, §4

[23] = tested on: S-4a, clinical isolated drug-resistant strain MRSA; conditions: strain S-4a (MRSA)
Description: as §3, §4

[24] = tested on: Bacillus subtilis (ATCC 23857); conditions: ATCC 23857
Description: as §3, §4

Method for mouse red blood cells: The hemolytic activity was determined by measuring a hemolytic concentration for mouse red blood cells with the antibacterial polypeptide compounds.
The mouse red blood cells was diluted to a concentration of 8%, the obtained red blood cell suspension was added to a 96-well plate (100 μL per well), and then 100 μL of one compound was added to a corresponding well. After incubation for 1 hour, the supernatant of each well was added to another 96-well plate, and then the absorbance value of the sample supernatant was measured at 490 nm using a ELISA reader. With regard to the present invention, PBS and 2% Triton-X 100 were used as a negative control and a positive control, separately.

Polymyxin B
survival rate of mice (E. coli (ATCC 25922) [1]): 100%

PWKLSLHL-NH2 [Compound 8]
effect on proliferation (inhibitory activity) [2]: no inhibitory activity | effect on proliferation (inhibitory activity) [3]: no inhibitory activity | effect on proliferation (inhibitory activity) [4]: no inhibitory activity | LD50 (Acute toxicity in mice): > 1000 mg/kg | MIC [5]: 8 µM | MIC S. epidermidis ATCC12228 [6]: 32 µM | MIC C. sakazakii ATCC29544 [7]: 16 µM | MIC [8]: 64 µM | MIC C. krusei ATCC6258 (C. krusei ATCC6258): 32 µM | MIC [9]: 16 µM | MIC [10]: 8 µM | MIC C. parapsilosis ATCC2001 (C. parapsilosis ATCC2001): 16 µM | MIC C. glabrata ATCC22019 (C. glabrata ATCC22019): 16 µM | MIC [11]: 64 µM | MIC [12]: 16 µM | MIC S. aureus ATCC29213 [13]: 64 µM | MIC C. tropicalis ATCC750 (C. tropicalis ATCC750): 16 µM | MIC [14]: 16 µM | MIC [15]: 16 µM | MIC [16]: 64 µM | MIC C. coli ATCC25922 (E. coli (ATCC 25922) [17]): 16 µM | MIC [18]: 8 µM | MIC [19]: 16 µM | MIC P. aerugmosa ATCC27853 [20]: 16 µM | MIC [21]: 8 µM | MIC [22]: 16 µM | MIC C. albicans ATCC14053 (C. albicans ATCC14053): 16 µM | MIC [23]: 64 µM | MIC B. subtilis ATCC23857 [24]: 16 µM

Triton X-100
hemolysis rate (mouse red blood cells): 100%
